Experimental findings from patent publication US9737540B2, “Combination treatment of cancer” (ASTRAZENECA AB, priority 2011, dated 2017) are described below.

Read-outs that look alike come from different tables or passages of the source.

For experiment [1], the system named is LNCaP prostate tumour cell line. Kind of experiment: Proliferation assay, Sytox Green endpoint, live cell number after 5 days (LNCaP). The format is cell-based. As to conditions: LNCaP cells; monotherapy or with MDV-3100 0.1 μM to 10 μM; n=3. Here is the method: (§1) The LNCaP and VCAP prostate tumour cell lines (American Tissue Culture Collection) were routinely cultured in RMPI supplemented with 10% FCS and 2 mM L-glutamine. To determine the effect of AZD5363 and MDV-3100, either as a monotherapy or in combination, on cell growth, a proliferation assay was performed using the Sytox Green endpoint to measure live cell number after 5 days. […] Cells were then dosed with increasing concentrations of AZD5363 (0.01-1 μM), MDV-3100 (0.1-10 μM) or a combination of each agent in a 6×6 matrix format. After 5-day exposure to compound, Sytox Green nucleic acid dye (Invitrogen) diluted in TBS-EDTA (TBS=Tris-buffered saline, EDTA=ethylenediaminetetraacetic acid) buffer was added to cells at a final concentration of […] and the number of dead cells detected using an Acumen Explorer. Cells were then permeabilised by the addition of saponin (0.03% final concentration, diluted in TBS-EDTA buffer), incubated overnight and a total cell count measured. The live cell count was then determined by subtracting the number of dead cells per well from the total number of cells. […] The data is presented as % growth using the NCI formulae as follows: [(Ti-Tz)/(C-Tz)]×100 for concentrations for which Ti>/=Tz [(Ti-Tz)/Tz]×100 for concentrations for which Ti<Tz. […] Synergism of the drug combination was evaluated using a unified approach described by C. […]

Experiment [2] has as its system VCAP prostate tumour cell line. Kind of experiment: Proliferation assay, Sytox Green endpoint, live cell number after 5 days (VCAP). The format is cell-based. As to conditions: VCAP cells; monotherapy or with MDV-3100 0.1 μM to 10 μM; n=3. Here is the method: as §1
Experiment [3] has as its system LNCaP prostate cancer cells (PTEN null, androgen receptor positive). The class given is in vivo. As to conditions: castrated mice.

As to `NC1(C(=O)N[C@@H](CCO)c2ccc(Cl)cc2)CCN(c2ncnc3[nH]ccc23)CC1` [AZD5363, (S)-4-amino-N-(1-(4-chlorophenyl)-3-hydroxypropyl)-1-(7H-pyrrolo[2,3-d]pyrimidin-4-yl)piperidine-4-carboxamide], the “Effect on cell growth / cell death (mean % growth, FIG. 1)” value in experiment [1] is “can inhibit the growth of LNCaP cells and induce cell death as a monotherapy”. Also, in experiment [2], the “Effect on cell growth (mean % growth, FIG. 2)” value was “can inhibit the growth of VCAP cells as a monotherapy”. Also, the “inhibition of tumour volume” value in experiment [3] (AZD5363 monotherapy 100 mg/kg bd, 5 days on, 2 days off) amounted to 56%.
`CC(O)(CS(=O)(=O)c1ccc(F)cc1)C(=O)Nc1ccc(C#N)c(C(F)(F)F)c1` (stereo not shown) [bicalutamide, N-[4-cyano-3-(trifluoromethyl)-phenyl]-3-[(4-fluorophenyl)-sulfonyl]-2-hydroxy-2-methylpropanamide, reference compound]: the “inhibition of tumour volume” value in experiment [3] (bicalutamide monotherapy 50 mg/kg qd) came out at 42%.
